Assay [1] has as its target Delta-type opioid receptor (Homo sapiens, UniProt P41143). Nature of the assay: Counterscreen for agonists of heterodimerization of the mu 1 (OPRM1) and delta 1 (OPRD1) opioid receptors: Luminescence-based cell-based high throughput dose response assay to identify agonists of OPRD1 homodimerization. [Related pubchem assays (depositor defined):AID504326, AID504355, AID504692, AID504904, AID504905]. The format is functional. In general terms: The purpose of a counterscreen is to sort out artefacts and off-target activity.

In another assay the target is Mu-type opioid receptor (Homo sapiens, UniProt P35372). Nature of the assay: Counterscreen for agonists of heterodimerization of the mu 1 (OPRM1) and delta 1 (OPRD1) opioid receptors: Luminescence-based cell-based high throughput dose response assay to identify agonists of OPRM1 homodimerization. The format is functional.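 Note: U2OS cells expressing OPRM1 and beta-arrestin as split beta-galactosidase partners.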
In assay [2] the target is 5-hydroxytryptamine receptor 5A (Homo sapiens, UniProt P47898). Nature of the assay: Counterscreen for agonists of OPRM1-OPRD1 heterodimerization: luminescence-based cell-based high throughput dose response assay to identify agonists of 5-hydroxytryptamine (serotonin) 5A receptor (HTR5A). [Related pubchem assays (depositor defined):AID504326, AID504355, AID504692, AID504904, AID504905]. It is filed as functional.

For a further assay, the system named is HeLa. Nature of the assay: ATP-based viability loss in HeLa cells – cell-based, CellTiter-Glo luminescence, cherry-pick samples, cytotoxicity control for MITF activator project, dose response (AID 540259). It is filed as functional. The conditions noted are these: Homo sapiens. For orientation: In ATP-based viability assays light output follows the ATP content of the culture.

The next assay deals with Escherichia coli. Nature of the assay: microbe, parasite or virus in culture.
For assay [3], the target named is T1, Tyrosine-protein phosphatase non-receptor type 7 (Homo sapiens, UniProt P35236).
T1 sequence (P35236 whole entry): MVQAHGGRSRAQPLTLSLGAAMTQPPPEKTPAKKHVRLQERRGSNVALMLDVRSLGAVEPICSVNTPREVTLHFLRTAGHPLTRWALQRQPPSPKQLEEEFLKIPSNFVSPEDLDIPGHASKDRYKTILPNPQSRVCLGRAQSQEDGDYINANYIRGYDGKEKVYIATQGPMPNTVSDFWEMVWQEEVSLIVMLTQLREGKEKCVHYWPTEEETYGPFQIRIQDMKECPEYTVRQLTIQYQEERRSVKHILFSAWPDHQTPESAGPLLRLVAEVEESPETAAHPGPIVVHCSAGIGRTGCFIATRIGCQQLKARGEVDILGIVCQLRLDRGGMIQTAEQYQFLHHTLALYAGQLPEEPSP
The format is functional.

In assay [4] the target is Glyceraldehyde-3-phosphate dehydrogenase (Homo sapiens, UniProt P04406).
The target in assay [5] is T2, Dual specificity protein phosphatase 6 (Rattus norvegicus, UniProt Q64346).
T2 sequence (Q64346 whole entry): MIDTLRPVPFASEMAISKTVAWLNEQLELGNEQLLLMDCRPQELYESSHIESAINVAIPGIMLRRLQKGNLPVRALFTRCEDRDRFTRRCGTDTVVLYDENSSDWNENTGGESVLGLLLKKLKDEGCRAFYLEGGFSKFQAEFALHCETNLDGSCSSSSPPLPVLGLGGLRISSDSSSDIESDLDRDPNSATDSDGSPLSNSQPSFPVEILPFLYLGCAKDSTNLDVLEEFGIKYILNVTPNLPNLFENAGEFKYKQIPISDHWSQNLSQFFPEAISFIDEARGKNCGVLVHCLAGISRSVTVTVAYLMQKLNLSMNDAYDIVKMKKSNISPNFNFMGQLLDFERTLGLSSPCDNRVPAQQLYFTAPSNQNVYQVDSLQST

Assay [6] deals with T2, Dual specificity protein phosphatase 6. It is filed as functional.
The next assay has as its target T3, Protein skinhead-1 (Caenorhabditis elegans, UniProt P34707).
T3 sequence (P34707 whole entry): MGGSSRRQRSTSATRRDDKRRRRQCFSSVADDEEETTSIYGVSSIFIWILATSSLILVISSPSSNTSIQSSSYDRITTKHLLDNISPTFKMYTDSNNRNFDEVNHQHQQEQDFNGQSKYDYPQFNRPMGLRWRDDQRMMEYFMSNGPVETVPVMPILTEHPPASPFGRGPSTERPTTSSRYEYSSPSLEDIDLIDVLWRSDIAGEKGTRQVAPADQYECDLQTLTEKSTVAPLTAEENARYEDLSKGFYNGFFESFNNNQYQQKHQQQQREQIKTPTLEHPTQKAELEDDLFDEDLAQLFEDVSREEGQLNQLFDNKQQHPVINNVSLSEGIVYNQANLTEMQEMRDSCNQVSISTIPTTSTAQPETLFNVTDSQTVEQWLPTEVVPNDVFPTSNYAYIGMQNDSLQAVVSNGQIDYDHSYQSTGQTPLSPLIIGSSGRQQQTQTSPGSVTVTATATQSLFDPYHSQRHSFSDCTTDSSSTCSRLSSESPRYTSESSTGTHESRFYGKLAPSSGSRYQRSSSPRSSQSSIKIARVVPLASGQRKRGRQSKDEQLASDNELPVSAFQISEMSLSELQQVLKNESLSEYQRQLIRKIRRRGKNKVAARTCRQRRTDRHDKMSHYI
The format is functional.

The target in assay [7] is Voltage-gated inwardly rectifying potassium channel KCNH2 (Homo sapiens, UniProt Q12809). The conditions noted are these: Potency.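 Note: confirmatory quantitative high-throughput screen measuring inhibition of hERG channel activity.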
Assay [8] has as its target T4, Neuropeptides B/W receptor type 1 (Homo sapiens, UniProt P48145).
T4 sequence (P48145 whole entry): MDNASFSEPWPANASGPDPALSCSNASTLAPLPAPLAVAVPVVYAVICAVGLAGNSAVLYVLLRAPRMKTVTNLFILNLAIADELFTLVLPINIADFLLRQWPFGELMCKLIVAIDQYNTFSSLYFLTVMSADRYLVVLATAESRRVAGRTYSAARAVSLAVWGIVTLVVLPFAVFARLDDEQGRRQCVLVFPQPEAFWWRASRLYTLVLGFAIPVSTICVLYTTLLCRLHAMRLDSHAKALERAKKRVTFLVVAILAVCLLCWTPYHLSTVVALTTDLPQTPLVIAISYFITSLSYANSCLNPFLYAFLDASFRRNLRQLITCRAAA
In words: Fluorescence-based dose response cell-based high throughput screening assay to identify antagonists of the G-protein coupled receptor 7 (GPR7). [Related pubchem assays: 1952 (Screening assay (GPR7 antagonists).), 1880 (Summary AID.)]. It is filed as functional.

In assay [9] the target is Melanin-concentrating hormone receptor 1 (Homo sapiens, UniProt Q99705). Nature of the assay: Fluorescence-based counterscreen for antagonists of the G-protein coupled receptor 7 (GPR7): cell-based high throughput dose response assay to identify antagonists of the melanin-concentrating hormone receptor 1 (MCHR1). It is filed as functional.
A further assay has as its target T5, Hexokinase-1 (Homo sapiens, UniProt P19367).
T5 sequence (P19367 whole entry): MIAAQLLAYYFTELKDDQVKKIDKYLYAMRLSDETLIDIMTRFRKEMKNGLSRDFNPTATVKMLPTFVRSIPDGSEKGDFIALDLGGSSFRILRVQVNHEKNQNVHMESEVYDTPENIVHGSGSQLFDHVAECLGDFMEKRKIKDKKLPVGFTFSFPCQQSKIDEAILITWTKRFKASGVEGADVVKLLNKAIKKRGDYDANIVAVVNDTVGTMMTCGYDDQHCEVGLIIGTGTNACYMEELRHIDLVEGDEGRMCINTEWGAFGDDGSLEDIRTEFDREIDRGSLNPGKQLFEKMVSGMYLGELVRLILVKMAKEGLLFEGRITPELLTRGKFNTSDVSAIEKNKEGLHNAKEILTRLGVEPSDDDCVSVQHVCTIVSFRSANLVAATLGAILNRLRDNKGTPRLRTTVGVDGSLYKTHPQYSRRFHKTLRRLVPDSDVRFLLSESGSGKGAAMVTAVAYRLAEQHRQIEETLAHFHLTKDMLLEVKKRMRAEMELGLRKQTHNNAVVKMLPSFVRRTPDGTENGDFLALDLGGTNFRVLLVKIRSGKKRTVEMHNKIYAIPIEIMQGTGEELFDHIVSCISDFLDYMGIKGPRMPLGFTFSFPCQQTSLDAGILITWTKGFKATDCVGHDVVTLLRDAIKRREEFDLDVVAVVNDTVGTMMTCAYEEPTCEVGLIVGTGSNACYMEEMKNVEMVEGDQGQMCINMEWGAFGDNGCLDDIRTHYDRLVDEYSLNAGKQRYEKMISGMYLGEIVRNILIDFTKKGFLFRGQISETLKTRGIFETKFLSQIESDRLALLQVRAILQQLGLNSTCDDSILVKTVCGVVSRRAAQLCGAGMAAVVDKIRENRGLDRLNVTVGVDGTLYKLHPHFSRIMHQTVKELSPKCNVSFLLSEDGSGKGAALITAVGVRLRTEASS
In words: hexokinase 1 activity inhibitors, potency – biochemical, set 2, resazurin fluorescence coupled readout, selectivity assay for HKDC1 inhibitor project, SAR follow-up (AID 588356). The format is functional.

Another assay addresses T6, Hexokinase HKDC1 (Homo sapiens, UniProt Q2TB90).
T6 sequence (Q2TB90 whole entry): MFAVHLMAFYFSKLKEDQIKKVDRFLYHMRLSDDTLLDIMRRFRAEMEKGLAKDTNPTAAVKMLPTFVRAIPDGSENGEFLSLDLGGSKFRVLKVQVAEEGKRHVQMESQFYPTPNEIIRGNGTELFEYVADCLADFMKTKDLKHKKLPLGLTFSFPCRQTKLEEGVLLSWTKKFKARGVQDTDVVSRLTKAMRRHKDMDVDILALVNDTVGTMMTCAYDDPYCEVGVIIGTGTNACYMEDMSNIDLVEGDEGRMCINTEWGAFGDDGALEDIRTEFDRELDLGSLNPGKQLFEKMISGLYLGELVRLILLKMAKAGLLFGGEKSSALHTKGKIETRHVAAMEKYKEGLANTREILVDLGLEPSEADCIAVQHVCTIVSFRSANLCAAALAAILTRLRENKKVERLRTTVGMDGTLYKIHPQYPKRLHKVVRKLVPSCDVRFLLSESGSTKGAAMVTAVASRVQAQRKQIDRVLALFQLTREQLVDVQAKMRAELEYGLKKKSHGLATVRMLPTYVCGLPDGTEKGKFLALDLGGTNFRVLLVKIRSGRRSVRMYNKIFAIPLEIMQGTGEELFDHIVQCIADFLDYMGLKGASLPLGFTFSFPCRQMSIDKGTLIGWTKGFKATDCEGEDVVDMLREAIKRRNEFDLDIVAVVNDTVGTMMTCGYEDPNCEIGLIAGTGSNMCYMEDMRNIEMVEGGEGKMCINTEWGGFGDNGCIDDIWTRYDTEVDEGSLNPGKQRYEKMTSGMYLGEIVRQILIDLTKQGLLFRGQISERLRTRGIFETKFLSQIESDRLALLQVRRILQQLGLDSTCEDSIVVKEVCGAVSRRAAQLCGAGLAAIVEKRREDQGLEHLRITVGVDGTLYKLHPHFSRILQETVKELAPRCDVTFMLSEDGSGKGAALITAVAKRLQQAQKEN
Nature of the assay: analog inhibition of human HKDC1 activity – biochemical, set 2, SAR follow-up (AID 588355). It is filed as functional.

Assay [10] in a line: general cell-killing toxicity readout – plate reader, dry powder samples, cytotoxicity control for PAX8 inhibitor project, dose response (AID 743021). It is filed as functional, cell-based.

Activity calls are given as the source filed them. Where only a bound is given, the exact number is not on record here.

Mu-type opioid receptor, sequence (P35372 whole entry): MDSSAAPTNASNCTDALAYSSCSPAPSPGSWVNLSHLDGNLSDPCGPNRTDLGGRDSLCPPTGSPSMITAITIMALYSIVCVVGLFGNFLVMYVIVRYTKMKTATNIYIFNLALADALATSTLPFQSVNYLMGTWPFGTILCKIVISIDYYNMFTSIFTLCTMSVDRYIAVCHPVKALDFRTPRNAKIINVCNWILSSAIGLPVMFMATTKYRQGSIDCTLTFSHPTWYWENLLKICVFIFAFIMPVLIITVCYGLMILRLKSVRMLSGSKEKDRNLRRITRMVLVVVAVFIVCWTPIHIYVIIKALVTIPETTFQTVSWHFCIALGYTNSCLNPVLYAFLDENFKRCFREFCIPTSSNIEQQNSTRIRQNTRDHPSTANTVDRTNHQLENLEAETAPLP
Delta-type opioid receptor, sequence (P41143 whole entry): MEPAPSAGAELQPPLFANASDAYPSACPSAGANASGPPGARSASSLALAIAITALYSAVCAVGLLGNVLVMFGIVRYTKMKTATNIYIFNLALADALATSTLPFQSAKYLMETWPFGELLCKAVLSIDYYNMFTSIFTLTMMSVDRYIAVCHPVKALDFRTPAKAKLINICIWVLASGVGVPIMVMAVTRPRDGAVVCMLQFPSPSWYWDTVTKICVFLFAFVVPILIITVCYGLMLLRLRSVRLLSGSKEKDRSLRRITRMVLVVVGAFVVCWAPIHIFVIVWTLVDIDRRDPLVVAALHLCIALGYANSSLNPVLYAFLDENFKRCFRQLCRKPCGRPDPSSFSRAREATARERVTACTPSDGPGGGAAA
5-hydroxytryptamine receptor 5A, sequence (P47898 whole entry): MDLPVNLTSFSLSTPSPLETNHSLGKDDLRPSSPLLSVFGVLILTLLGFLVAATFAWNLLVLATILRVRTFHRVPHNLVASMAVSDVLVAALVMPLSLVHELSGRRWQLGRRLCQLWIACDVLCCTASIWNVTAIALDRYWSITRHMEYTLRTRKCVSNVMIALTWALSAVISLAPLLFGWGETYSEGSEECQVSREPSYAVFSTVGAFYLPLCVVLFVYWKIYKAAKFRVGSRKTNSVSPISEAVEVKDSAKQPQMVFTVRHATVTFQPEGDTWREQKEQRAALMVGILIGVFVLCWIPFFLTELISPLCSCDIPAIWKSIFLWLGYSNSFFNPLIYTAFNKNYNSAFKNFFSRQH
Glyceraldehyde-3-phosphate dehydrogenase, sequence (P04406 whole entry): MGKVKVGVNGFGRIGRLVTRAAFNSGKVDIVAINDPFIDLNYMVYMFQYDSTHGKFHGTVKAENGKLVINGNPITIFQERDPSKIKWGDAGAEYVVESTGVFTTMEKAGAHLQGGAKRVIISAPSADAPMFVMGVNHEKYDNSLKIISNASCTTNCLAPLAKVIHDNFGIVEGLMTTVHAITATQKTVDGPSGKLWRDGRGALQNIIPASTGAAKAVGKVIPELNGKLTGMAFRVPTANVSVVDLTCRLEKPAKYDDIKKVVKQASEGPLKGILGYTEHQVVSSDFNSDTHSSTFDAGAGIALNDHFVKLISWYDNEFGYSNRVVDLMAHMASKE
Melanin-concentrating hormone receptor 1, sequence (Q99705 whole entry): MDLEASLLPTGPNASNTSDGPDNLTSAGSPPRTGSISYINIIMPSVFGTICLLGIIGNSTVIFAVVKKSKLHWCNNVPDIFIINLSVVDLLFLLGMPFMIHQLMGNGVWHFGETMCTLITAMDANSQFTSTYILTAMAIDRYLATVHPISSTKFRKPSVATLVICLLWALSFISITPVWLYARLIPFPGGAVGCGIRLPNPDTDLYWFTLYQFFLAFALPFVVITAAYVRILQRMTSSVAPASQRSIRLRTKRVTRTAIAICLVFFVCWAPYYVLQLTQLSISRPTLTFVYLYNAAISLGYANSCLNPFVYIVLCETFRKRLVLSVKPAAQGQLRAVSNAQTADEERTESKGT
Voltage-gated inwardly rectifying potassium channel KCNH2, sequence (Q12809 whole entry): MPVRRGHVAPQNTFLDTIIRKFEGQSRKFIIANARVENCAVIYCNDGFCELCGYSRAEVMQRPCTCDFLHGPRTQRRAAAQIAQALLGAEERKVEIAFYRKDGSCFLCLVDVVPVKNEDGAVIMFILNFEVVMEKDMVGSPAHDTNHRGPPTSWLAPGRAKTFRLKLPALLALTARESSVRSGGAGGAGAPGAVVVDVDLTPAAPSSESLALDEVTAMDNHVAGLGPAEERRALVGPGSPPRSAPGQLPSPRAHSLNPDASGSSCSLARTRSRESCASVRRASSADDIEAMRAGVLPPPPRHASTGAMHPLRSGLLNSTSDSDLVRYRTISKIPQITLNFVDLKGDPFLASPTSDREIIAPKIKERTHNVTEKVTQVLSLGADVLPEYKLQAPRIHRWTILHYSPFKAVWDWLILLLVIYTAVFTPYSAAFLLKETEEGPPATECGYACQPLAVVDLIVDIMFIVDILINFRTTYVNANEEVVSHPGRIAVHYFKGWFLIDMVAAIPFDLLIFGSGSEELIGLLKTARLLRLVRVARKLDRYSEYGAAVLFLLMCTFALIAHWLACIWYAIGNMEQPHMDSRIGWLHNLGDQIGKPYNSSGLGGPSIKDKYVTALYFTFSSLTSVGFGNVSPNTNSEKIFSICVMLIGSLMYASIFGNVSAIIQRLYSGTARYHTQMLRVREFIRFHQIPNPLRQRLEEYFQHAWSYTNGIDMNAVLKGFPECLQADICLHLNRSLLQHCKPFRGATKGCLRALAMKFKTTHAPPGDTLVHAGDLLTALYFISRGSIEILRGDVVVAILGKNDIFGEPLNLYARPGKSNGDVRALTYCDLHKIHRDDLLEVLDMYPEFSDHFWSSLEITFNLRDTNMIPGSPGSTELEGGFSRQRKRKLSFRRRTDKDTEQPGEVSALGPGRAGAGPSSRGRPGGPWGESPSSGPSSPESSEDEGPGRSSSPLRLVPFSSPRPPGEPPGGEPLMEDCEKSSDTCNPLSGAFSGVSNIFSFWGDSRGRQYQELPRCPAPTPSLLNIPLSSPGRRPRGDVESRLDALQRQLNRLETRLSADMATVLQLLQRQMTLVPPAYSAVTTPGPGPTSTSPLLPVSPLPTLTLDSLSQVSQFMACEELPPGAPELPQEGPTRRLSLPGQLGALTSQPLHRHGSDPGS

As to `CCOC(=O)c1c(C)[nH]c(C(=O)OC/C(O)=C(\C#N)c2nc3ccccc3[nH]2)c1C`, the EC50 (in assay [1]; on Mu-type opioid receptor; in assay [2]) was > 92.5 µM (inactive) in each case.
Consider `COc1ccc2cc(-c3nc4ccccc4n3C)c(=O)oc2c1`, for which the half-maximal activity concentration (AC50) in the assay on HeLa is 174 µM (active).
Take `COc1cc(Cl)ccc1OCc1cc(C(=O)NCC(C)(C)N2CCOCC2)no1`: the AC50 in the assay on Escherichia coli is 33.9 µM (active).
Regarding `CCCn1c(=O)nc(NCCc2ccccc2)[nH]c1=O`, the IC50 in assay [3] was > 100 µM (not active); in assay [4], > 100 µM (not active); in [5] it was > 100 µM (inactive); in assay [6] it was > 100 µM (inactive).
In the case of `CC(C)OCC(O)CN1CCN(CC(O)COc2ccc3c(c2)OCO3)CC1` (stereo unspecified), in the assay with Escherichia coli, the half-maximal activity concentration (AC50) is 62.7 µM (active).
Take `COc1ccc(C(=O)NN=C(NS(=O)(=O)c2ccc(C)cc2)c2ccccc2)cc1`: the half-maximal activity concentration (AC50) in the assay with HeLa was 55.4 µM (active). In addition, the IC50 on Protein skinhead-1 is > 100 µM (inactive).
For `CC1CC(OC(=O)c2ccccc2O)CC(C)(C)C1` (stereo unspecified) [HOMOSALATE], the half-maximal activity concentration (AC50) in [7] was 6.31 µM (inconclusive).
For `CCCCN1C(=O)C(NC(C)=O)c2cc(Br)ccc21` (stereo unspecified), the concentration for half-maximal inhibition (IC50) was > 43.8 µM (not active) in assay [8], > 43.8 µM (not active) in assay [9], > 80 µM (inactive) at Hexokinase-1 and > 80 µM (inactive) at Hexokinase HKDC1.
On to `COc1ccc(C2Nc3ccccc3C(=O)N2c2ccc(F)cc2)cc1CSc1ccccn1` (stereo unspecified), for which the EC50 in assay [1] is > 30.8 µM (inactive); on Mu-type opioid receptor, > 92.4 µM (inactive); in assay [2], > 92.4 µM (inactive). Besides, the AC50 in assay [10] was 48.8 µM (active).

For orientation: EC50 means the concentration that produces a half-maximal response. For orientation: AC50 means the midpoint of the concentration-response curve, whichever way the signal moves. A word on the IC50: it is the point on the concentration scale where inhibition reaches its midpoint.

The values above are taken from ChEMBL document CHEMBL1201862, “PubChem BioAssay data set” (2004).
